# Source: patent publication US8729030B2 (Affymax, Inc., priority 2003, dated 2014)
# pEC50, pIC50: −log10 of the molar value. Bridges are numbered along the chain shown (N, C = ends). Where no end group is shown, it is not given here. [ ]: non-standard residue; d: D form. 1Nal = N[C@@H](Cc1cccc2ccccc12)C(=O)O; Sar = CNCC(=O)O
# What was measured:
# [1] = molecular target: chimeric receptor comprising the extra-cellular portion of the human EPO receptor to the intra-cellular portion of the human GCSF receptor; test: Reporter assay (Baf3/EpoR/GCSFR fos/lux luciferase); assay type: cell-based; conditions: Table 6; Baf3/EpoR/GCSFR fos/lux cells, 4 h
# Excerpt: This assay is based upon a on a murine pre-B-cell line derived reporter cell, Baf3/EpoR/GCSFR fos/lux. This reporter cell line expresses a chimeric receptor comprising the extra-cellular portion of the human EPO receptor to the intra-cellular portion of the human GCSF receptor. This cell line is further transfected with a fos promoter-driven luciferase reporter gene construct. Activation of this chimeric receptor through addition of erythropoietic agent results in the expression of the luciferase reporter gene, and therefore the production of light upon addition of the luciferase substrate luciferin. Thus, the level of EPO-R activation in such cells may be quantitated via measurement of luciferase activity.
# The Baf3/EpoR/GCSFR fos/lux cells are cultured in DMEM/F12 medium (Gibco) supplemented with 10% fetal bovine serum (FBS; Hyclone), 10% WEHI-3 supernatant (the supernatant from a culture of WEHI-3 cells, ATCC #TIB-68), and penicillin/streptomycin. […] Following a 5-minute incubation, light emission is measured on a Packard Topcount Luminometer (Packard Instrument Co., Downers Grove, Ill.). Light counts are plotted relative to test peptide concentration and analysed using Graph Pad software. The concentration of test peptide that results in a half-maximal emission of light is recorded as the EC50 [See Table 2: Reporter EC50]. […]
# [2] = molecular target: T1, Recombinant Human EPO R/Fc Chimera (Homo sapiens, UniProt P19235); test: Radioligand competitive binding assay (125I-EPO); conditions: Table 6; competition with 125I-EPO, 4° C. overnight
# T1 construct: recombinant EPOr extracellular domain fused to the Fc portion of human IgG1; purchased R&D Systems (Minneapolis, MN, US) 963-ER
# T1 sequence (P19235 25-250 limits assumed): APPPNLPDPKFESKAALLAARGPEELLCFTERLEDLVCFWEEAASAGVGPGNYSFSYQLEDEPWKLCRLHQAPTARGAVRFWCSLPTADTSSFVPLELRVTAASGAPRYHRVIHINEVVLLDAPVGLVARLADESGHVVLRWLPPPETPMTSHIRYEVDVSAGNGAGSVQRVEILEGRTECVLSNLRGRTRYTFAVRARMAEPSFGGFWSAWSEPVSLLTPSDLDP
# Procedure: An alternative radioligand competition binding assay can also be used to measure IC50 values of peptides in this invention. This assay measures binding of ^125I-EPO to EPOr. The assay is preferably performed according to the following exemplary protocol:
# One 50 μg vial of lyophilized recombinant EPOr extracellular domain fused to the Fc portion of human IgG1 is reconstituted in 1 mL of assay buffer. […] Tubes are capped and mixed gently at 4° C. overnight on a LabQuake rotating shaker.
# The next day, 50 μL of a 50% slurry of Protein-G Sepharose is added to each tube. Tubes are then incubated for 2 hours at 4° C., mixing gently. The tubes are then centrifuged for 15 min at 4000 RPM (3297×G) to pellet the protein-G sepharose. The supernatants are carefully removed and discarded. After washing 3 times with 1 mL of 4° C. assay buffer, the pellets are counted in a Wallac Wizard gamma counter. Results are then analyzed and the dilution required to reach 50% of the maximum binding value is calculated.
# The next day, bound ^125I-EPO is quantitated as described above. The results are analyzed and the IC50 value calculated using Graphpad Prism version 4.0, from GraphPad Software, Inc. (San Diego, Calif.). The assay is repeated two or more times for each peptide tested, for a total of 3 or more replicate IC50 determinations. See Table 6 for IC50 values of Peptide I.
# [3] = system: human, bone marrow derived CD34+ cells; test: C/BFU-e assay (erythroid colony formation); assay type: cell-based; conditions: Table 6; colonies 90% of maximum relative to EPO control, 14 days
# Excerpt: EPO-R signaling stimulates the differentiation of bone marrow stem cells into proliferating red blood cell presursors. This assay measures the ability of test peptides to stimulate the proliferation and differentiation of red blood cell precursors from primary human bone marrow pluripotent stem cells.
# For this assay, serial dilutions of test peptide are made in IMDM medium (Gibco) supplemented with 10% FBS (Hyclone). […] The methylcellulose and peptide mixture is then vortexed thoroughly. Aliquots (100,000 cells/mL) of human, bone marrow derived CD34+ cells (Poietics/Cambrex) are thawed. The thawed cells are gently added to 0.1 mL of 1 mg/ml DNAse (Stem Cells) in a 50 mL tube. Next, 40-50 mL IMDM medium is added gently to cells: the medium is added drop by drop along the side of the 50 mL tube for the first 10 mL, and then the remaining volume of medium is slowly dispensed along the side of the tube. The cells are then spun at 900 rpm for 20 min, and the media removed carefully by gentle aspiration. The cells are resuspended in 1 ml of IMDM medium and the cell density per mL is counted on hemacytometer slide (10 μL aliquot of cell suspension on slide, and cell density is the average count×10,000 cells/ml). The cells are then diluted in IMDM medium to a cell density of 15,000 cells/mL. A 100 μL of diluted cells is then added to each 1.5 mL methyl cellulose plus peptide sample (final cell concentration in assay media is 1000 cells/mL), and the mixture is vortexed. Allow the bubbles in the mixture to disappear, and then aspirate 1 mL using blunt-end needle. Add 0.25 mL aspirated mixture from each sample into each of 4 wells of a 24-well plate (Falcon brand). Incubate the plated mixtures at 37° C. under 5% CO2 in a humid incubator for 14 days. Score for the presence of erythroid colonies using a phase microscope (5×-10× objective, final magnification of 100×).
# EPO-R signaling stimulates the differentiation of bone marrow stem cells into proliferating red blood cell precursors. […]
substance,measurement,setting,value
"peptide dimer of monomers (AcG)GLYACHMGPIT(1-nal)VCQPLR(MeG)K (SEQ ID NO: 2) (Ac-GGLYACHMGPIT[1Nal]VCQPLR[Sar]K; disulfide 6-15 (inferred); not fully specified (residue 1); printed as (AcG)GLYACHMGPIT(1-nal)VCQPLR(MeG)K; also: homodimer, dimer linkage not given here) [Peptide I]",pEC50,[1],9.71
same,pIC50,[2],9.95
same,EC90,[3],3 nM
